One assay has as its target T1, EhGEF (Entamoeba histolytica, UniProt C4LYE4).
T1 construct: gene EHI_008090; recombinant protein lacking PH domain (EhGEFΔPH), putative GEF domain
Briefly: tryptophan fluorescence quenching titration. Type of assay: binding.

In assay [1] the target is GST-tagged EhRho1 (wild type) (Entamoeba histolytica).

This is an account of results in paper PMC8648123, “An atypical EhGEF regulates phagocytosis in Entamoeba histolytica through EhRho1” (PLoS Pathogens, 2021).

As to `Nc1nc2c(ncn2[C@@H]2O[C@H](COP(=O)(O)OP(=O)(O)OP(=O)(O)O)[C@@H](O)[C@H]2O)c(=O)[nH]1` [GTP], binding on EhGEF was characterised by a dissociation constant (Kd) of 298 µM.

B1: HA-tagged EhGEF (full length wild type) (natural protein)
chain: MSEELKISVESLRPALFEGWGKKQGGSVKTWKKRWFVLKDNRLWYFASKTAEEAKGFIELPPGTETKDVSQNKKFMFSINSRNTKGSRVFYIVTENSVDHATFFDAVRKVLNKSSPSSVPAAQSTTPVNVPKAENQFTLQGNNSSTGLSTSTQPVTSTIPPMADAVNIPNSLQPKCDGRKNINKIKAKISWLQVEGENVVEFWKYWMDSTPQSDALEVGQSIQFMLVVSGNTEKLSWRVFGPQGALIQNMVDFFWNVGAPDEEIDHLNNLGCQINPSEIGSWIDMSVMNGMDGGWFFKGDLVCDVIRDTADKCEYAERLITWAKEHGLNYLCQMGRDMGATPPRQSEFRFKLDGVISSRMEKVHSAFTTFGFPPIPVNIVEILTNLPPVYTYFYLCVIVSSEGFVKISILVPAPKQDVVDAFLFAMSDVKDTHIALHKDITNTLGNTPLFVEYCYLNPGYGYEVYKEGADVLVHYNLGSESR
On to B1, for which the MANT-GDP dissociation from recombinant EhRho1 in presence of HA-EhGEF, compared with HsRhoA and EhRab1a in assay [1] is 2 fold.
